SMILES strings stand for the structures.

This is an account of results in patent US20150329864A1, “DESIGN OF OLIGONUCLEOTIDE ANALOGS AS THERAPEUTIC AGENTS” (SPRING BANK PHARMACEUTICALS, INC., priority 2010, published 2015).

The test system of one data set is HCV. Kind of data set: Combination studies against HCV in replicon assays. The class given is cell-based. As to conditions: Hepatitis C virus; monotherapy; read-out: EC50 (uM), single drug. (Replicon systems follow genome replication, usually without infectious particles.)
Data set [1] concerns human hepatitis B virus. Kind of data set: Anti-HBV activity in the HBV transgenic mouse model, oral administration. In kind it is in vivo, transgenic mice. As to conditions: 10 mg/kg/d, oral, once daily 14 days. The procedure: Compound 6k was evaluated for anti-HBV activity in the transgenic mouse model of HBV infection. Male transgenic mouse infected with HBV, with age ranging from 78 to 108 days were used. Compound 6k was initially evaluated at a single dose of 300 mg/kg, administered daily for 14 days by oral gavage. The compounds were administered in citric acid and adefovir dipivoxil was used as a positive control. A control group which received vehicle was used a negative control. Following the treatment, mice were sacrificed and liver tissue analyzed for HBV DNA using Southern blot analysis. The data was statistically evaluated using Kruskall-Wallis non-parametric ANOVA.
(a) Male and female transgenic mice (founder 1.3.32) were infected with human hepatitis B virus. Following infection, animals were orally administered Compound 6k, or a placebo of 0.05 M citric acid, pH 2.0 once daily for 14 days. Dosage was 300 mg/kg/d for Compound 6k. The positive control, ADV, was administered at 10 mg/kg/d.
Male and female transgenic mice (founder 1.3.32) were infected with human hepatitis B virus. Following infection, animals were orally administered Compound 6k, or a placebo of 0.05 M citric add, pH 2.0 once daily for 14 days. Dosages were 100, 10.5 and 1 mg/kg/d for Compound 6K. The positive control, ADV, was administered at 10 mg/kg/d.

The next data set relates to HBV WT. Description: HepG2.2.15 cell-based HBV assay, wild type. As to conditions: Hepatitis B virus, HBV WT, 9 daily doses; for EC50: read-out: EC50; for EC90: read-out: EC90. The protocol: Selected compounds were evaluated in in vitro cell-based HepG2.2.15 HBV assay.
Antiviral analysis. For the antiviral analyses, confluent cultures of 2.2.1.5 cells were maintained on 96-well flat-bottomed tissue culture plates in RPMI1640 medium with 2% fetal bovine serum. Cultures (6 per each test concentration on two replicate plates) were treated with 9 consecutive daily doses of the test compounds. Medium was changed daily with fresh test compounds. HBV nucleic acid and protein levels were measured 24 hours after the last treatment. Extracellular (virion) HBV DNA levels were assessed by quantitative blot hybridization. Intracellular HBV DNA levels were measured by quantitative Southern blot hybridization.
The uptake of neutral red dye was used to determine the relative level of toxicity 24 hours following the last treatment. The absorbance of internalized dye at […] (A510) was used for the semi-quantitative analysis. Values are presented as a percentage of the average A510 values (±standard deviations) in 9 separate cultures of untreated cells maintained on the 96-well plates seeded at the same time with the identical pool of stock cells used for the antiviral analyses and maintained in an identical manner. A total of 3 cultures were treated with each concentration of the test compound.

Another data set concerns HBV-3TC-R4 LMMV. The class given is cell-based. As to conditions: Hepatitis B virus.
For another data set, the system named is hepatitis B virus (HBV). Description: Effect of i.p. administration on hepatitis B virus in transgenic mice. The class given is in vivo. The protocol:
Compound 5 was evaluated in transgenic mice expressing hepatitis B virus (HBV). […] Its activity was also similar to the adefovir dipivoxil (ADV) anti-HBV activity; however, the two compounds seemed to suppress different HBV DNA species. […] In contrast, Compound 5 appeared to indiscriminately remose all HBV DNA species, including the bands typically left by ADV, which may reflect a different mechanism of action other than classical chain termination. Serum HBe, liver HBs, and HBc were not affected by Compound 5 treatment, which is consistent in transgenic mice with compounds that block viral synthesis “downstream” from mRNA synthesis, such as blockage of polymerase activities. A minimal effective dosage was determined to be between 1.6-0.5 mg/kg/day, which was similar to ADV minimal effective dosage of 1.0 mg/kg/day (Table 8).

Data set [2] concerns human hepatitis B virus. Description: Anti-HBV activity in the HBV transgenic mouse model, oral administration. As to conditions: p.o., qd × 14 d. In kind it is in vivo, transgenic mice.
For the next data set, the target named is T1, RIG-I (Homo sapiens, UniProt O95786).
T1 sequence (O95786 1-925): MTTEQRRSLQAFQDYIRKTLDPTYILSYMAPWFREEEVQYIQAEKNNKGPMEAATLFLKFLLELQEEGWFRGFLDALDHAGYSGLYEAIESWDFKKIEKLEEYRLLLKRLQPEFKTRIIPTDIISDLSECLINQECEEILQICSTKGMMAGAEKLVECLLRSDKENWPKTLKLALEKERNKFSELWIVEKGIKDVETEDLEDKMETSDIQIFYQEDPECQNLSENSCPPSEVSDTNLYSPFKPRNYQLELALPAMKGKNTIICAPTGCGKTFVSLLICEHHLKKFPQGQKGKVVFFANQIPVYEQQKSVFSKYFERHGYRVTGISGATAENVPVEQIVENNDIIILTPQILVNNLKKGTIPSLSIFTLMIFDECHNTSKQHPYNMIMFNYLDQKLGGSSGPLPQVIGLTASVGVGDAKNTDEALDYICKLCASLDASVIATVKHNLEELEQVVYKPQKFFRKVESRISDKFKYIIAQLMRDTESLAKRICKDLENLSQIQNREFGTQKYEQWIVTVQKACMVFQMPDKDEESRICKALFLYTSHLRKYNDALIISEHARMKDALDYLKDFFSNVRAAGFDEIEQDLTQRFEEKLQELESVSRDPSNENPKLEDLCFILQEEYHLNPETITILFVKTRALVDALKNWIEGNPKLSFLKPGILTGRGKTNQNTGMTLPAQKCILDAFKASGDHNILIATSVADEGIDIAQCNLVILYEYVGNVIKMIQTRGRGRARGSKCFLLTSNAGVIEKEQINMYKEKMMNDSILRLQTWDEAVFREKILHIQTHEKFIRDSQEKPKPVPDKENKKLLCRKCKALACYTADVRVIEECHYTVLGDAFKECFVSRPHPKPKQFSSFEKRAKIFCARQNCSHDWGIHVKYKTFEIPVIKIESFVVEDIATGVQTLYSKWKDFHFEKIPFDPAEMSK
Kind of data set: RIG-I translocation on dsRNA, single-molecule PIFE assay. To be noted: PIFE assay. In kind it is biochemical. The procedure: An in vitro single-molecule fluorescence assay termed PIFE (protein induced fluorescence enhancement) was employed to monitor such movement (Myong, S. et al., Science, 323, 1070, 2009).
For quantitation of RIG-I translocation, Single molecule PIFE yields were estimated. Single molecule PIFE yields are obtained from several hundred molecules simultaneously, allowing statistically reliable data collection.
The translocation as above was carried out using different concentrations of nucleotide compound.
A standard dsRNA (25 bp) was used as a main substrate for RIG-I translocation assay. […] The ratio between rapid (stimulated) translocation and slow translocation would be accounted for in the estimation of compound strength. In order to quantify the affinity of the compound to RIG-I or to RNA substrate, various concentrations of the compound (1-100 μM range) were used in the assay. This enabled the calculation of the association/dissociation constant for each compound, which was a useful measure to apply in cell-based evaluation of compound potency.
The same translocation assay was used on dsRNA, which contains […] moiety with and without the compound.

Data set [3] can be described thus: Cytotoxicity by neutral red dye uptake in HCV replicon cultures. To be noted: human, AVA5 HCV replicon cell line (sub-genomic CON1, genotype 1b); single drug, Table 9; read-out: CC50. The class given is cell-based. The procedure: Antiviral activity against HCV was assessed in a 3-day assay (Okuse, et al., 2005; Antiviral. Res. 65:23; Korba, et al., 2008, Antiviral Res. 77:56) using the stably-expressing HCV replicon cell line, AVA5 (sub-genomic (CON1), genotype 1b) (Blight, et al., 2000; Science 290:1972) maintained as sub-confluent cultures on 96-well plates. Antiviral activity was determined by blot hybridization analysis of intracellular HCV RNA (normalized to the level of cellular B-actin RNA in each culture sample). Cytotoxicity was assessed by neutral red dye uptake in cultures maintained in parallel plates.
EC50, EC90, and CC50 values were calculated by linear regression analysis (MS EXCEL®, QuattroPro®) using data combined from all treated cultures Korba & Gerin, 1992, Antivir. Res. 19:55; Okuse, et al., 2005, Antivir. Res. 65:23). […]
Combination treatments are conducted as previously described. Briefly, two agents were mixed together at a pre-determined concentration ratio. […] Analysis of drug interactions in the combination studies was determined by the use of the CALCUSYN program (Biosoft, Inc., Cambridge, United Kingdom). […]

On to `CC(C)[C@H](N)C(=O)O[C@@H]1[C@@H](CO)O[C@@H](n2ccc(N)nc2=O)[C@]1(C)O` [2C MeCyt (NM 283)], for which, in the data set with HCV, the EC50 (as a rule, the midpoint of the concentration-response curve) stood at 1.4 µM.

`CC(C)(C)C(=O)OCOP(=O)(COCCn1cnc2c(N)ncnc21)OCOC(=O)C(C)(C)C` [ADV, adefovir dipivoxil, reference compound]: in the data set with human hepatitis B virus [1], the “Liver HBV RNA (log transcripts ± sd)” value is on record as 10.5 ± 0.4 log transcripts, the “QPCR Liver HBV DNA (pg/μg mean ± sd)” value was 1.7 ± 1.1 pg/µg and the “Southern blot Liver HBV DNA (pg/μg mean ± sd)” value came out at 0.9 ± 1.1 pg/µg. Moreover, in the data set with HBV WT, the EC50 was determined as 1500 nM and the EC90 (in general, the point of the concentration-response curve where the effect stands at 90%) was found to be 7000 nM. In the data set with HBV-3TC-R4 LMMV, this compound showed a 50% effective concentration (EC50) of 2200 nM and an EC90 of 8300 nM. Further, in the data set with hepatitis B virus (HBV) (10 mg/kg/d, once daily 14 days), the “Liver HBV DNA (mean pg viral/μg cellular DNA ± stdev)” value is listed as 2.7 ± 1.4 (9) pg viral/μg cellular DNA and the “Serum HBV DNA (mean log10 genome equivalents/mL serum ± stdev)” value was 4.9 ± 0.4 (9) log10 genome equivalents/mL serum. Moreover, the minimal effective dosage in the data set with hepatitis B virus (HBV) (HBV transgenic mice) is listed as 1.0 mg/kg/day. The “Liver HBV DNA Southern blot (pg/μg mean ± sd)” value in the data set with human hepatitis B virus [2] (0.032 mg/kg/d) was 8.3 ± 11.3 (3) pg/μg. Also, the “Liver HBV DNA Southern blot (pg/μg mean ± sd)” value with human hepatitis B virus [2] (0.10 mg/kg/d) was 15.6 ± 13.7 (4) pg/μg.

As to `Nc1ccn([C@@H]2CS[C@H](CO)O2)c(=O)n1` [Compound 3TC, Lamivudine], the EC50 with HBV WT was 200 nM; in the data set with HBV-3TC-R4 LMMV, more than 100000 nM. Also, the 90% effect concentration (EC90) with HBV WT was 700 nM; with HBV-3TC-R4 LMMV it was more than 100000 nM.

For `NC(=O)c1ncn([C@@H]2O[C@H](CO)[C@@H](O)[C@H]2O)n1` [Ribavirin], the EC50 in the data set on HCV is more than 30 µM.

For `CO[C@H]1C(OP(=O)(O)OC[C@H]2O[C@@H](n3cnc4c(N)ncnc43)CC2O)[C@@H](CO)O[C@H]1n1ccc(=O)[nH]c1=O` (some centres unmarked) [SB 70], the “RIG-I translocation on dsRNA (activity in words)” value (“RIG-I translocation on dsRNA” below) at RIG-I was “varying degrees of RIG-I translocation”.

As for `CO[C@H]1C(OP(=O)(O)OC[C@H]2O[C@@H](n3cnc4c(N)ncnc43)CC2O)[C@@H](COP(=O)(O)OP(=O)(O)OP(=O)(O)O)O[C@H]1n1ccc(=O)[nH]c1=O` (some centres unmarked) [SB 80], the “RIG-I translocation on dsRNA” value at RIG-I is given as “varying degrees of RIG-I translocation”.

As to `Nc1ncnc2c1ccn2[C@H]1CC(OP(=O)(O)OC[C@H]2O[C@@H](n3cnc4c(N)ncnc43)CC2O)[C@@H](COP(=O)(O)OP(=O)(O)OP(=O)(O)O)O1` (some centres unmarked) [SB 90], on RIG-I, the “RIG-I translocation on dsRNA” value is “varying degrees of RIG-I translocation”.

As to `CCC[C@H](NC(=O)[C@@H]1[C@H]2CCC[C@H]2CN1C(=O)[C@@H](NC(=O)[C@@H](NC(=O)c1cnccn1)C1CCCCC1)C(C)(C)C)C(=O)C(=O)NC1CC1` [Vertex (telaprevir), telaprevir, reference compound], the CC50 (usually the concentration that lowers cell viability or growth by half) at 3 day in data set [3] was less than 80000 nM. For the same compound, the concentration for a half-maximal effect (EC50) in the data set with HCV amounted to 0.25 µM.
